Laboratory results reported in patent publication US20140196172A1, “Organelle Targeting Nanocarriers” (Her Majesty the Queen in Right of Canada, as Repre sented …, priority 2011, published 2014).

How the values were obtained:
[1] = test system: mitochondria of triticale mesophyll protoplasts; assay: Protoplast transformation with gfp reporter, confocal microscopy; type: cell-based; conditions: pWMaadA16GFP plasmid, 24 h
Method: (§1) The ten non-labelled oTPs listed in Tables 3 and 4 were tested for their capability to deliver biologically active DNA to chloroplasts or mitochondria using an oTP-GFP reporter construct transfection assay. oTPs are mixed with a double stranded (ds) DNA construct encoding Aequorea victoria green fluorescent protein (GFP) to form a complex. The plasmid-peptide nanocomplexes formed are incubated with triticale mesophyll protoplasts, microspores, or MDCK, Caco-2, F1112 or MG cells. Detection of a fluorescent signal by confocal microscopy and/or photometric cell imaging would indicate that the dsDNA had been transported into organelles and that transient expression of GFP had occurred. In addition, gene expression can be measured using quantitative real-time PCR to determine gfp mRNA abundance.
Wheat mitochondrial aadA16GFP reporter plasmid (pWMaadA16GFP, FIG. 11) is a 4587 base pair wheat specific mitochondrial transformation vector, which targets insertions into the fourth repeat region between the trnfM and rm18 gene cluster which is repeated three times in the Triticum aestivum mitochondrial genome. The insertion site is in the Triticum aestivum mitochondrial genome at nucleotides 300805-300878 and 300880-302834 (GenBank accession No. AP008982.1). A multiple cloning site is introduced following the tmfM target insertion sequence. […]

MG cells = assay: MG cell transformation with gfp reporter, photometric cell imaging; type: cell-based, bovine; conditions: for Fluorescence observed in cells upon transfection / Expression of GFP in mitochondria: MG, mitochondrial gfp-reporter construct; for Expression of GFP in mitochondria: photometric cell imaging; for gfp expression, Photometric Cell Imaging (average counts/sec) MG: pWMaadA16GFP 5 μg + peptide 500 μg, measured at 40 h
Method: Uptake of labeled peptides by cells is quantified using a photometric detector/cell-imaging system (PTI). An excitation scan is run to determine if uptake has occurred as indicated by peaks at the appropriate wavelengths and if the amount changes in a dose-dependent manner compared to unlabeled cells. A time-based scan is then performed at the optimal excitation and emission wavelength to quantify total uptake, using about 20 cells/view/replicate.
as §1
Wheat mitochondrial aadA16GFP reporter plasmid (pWMaadA16GFP, FIG. 11) is a 4587 base pair wheat specific mitochondrial transformation vector, which targets insertions into the fourth repeat region between the trnfM and rm18 gene cluster which is repeated three times in the Triticum aestivum mitochondrial genome. The insertion site is in the Triticum aestivum mitochondrial genome at nucleotides 300805-300878 and 300880-302834 (GenBank accession No. AP008982.1). A multiple cloning site is introduced following the tmfM target insertion sequence. The selection marker gene is an organelle codon specific aad-gfp fusion gene, which facilitates a dual selection method of spectinomycin resistance through an aadA derivative and visual detection by GFP fluorescence (GenBank accession No. ABX39486; Khan and Maliga, Nat. Biotechnol. (1999 September) 17(9): 910-5). The selection marker gene is driven by the Triticum aestivum mitochondrial atpA gene promoter (GenBank accession No. X54387.1). The aad-gfp fusion gene is terminated with the TpsbA terminator sequence derived from the Triticum aestivum mitochondrial genome at nucleotides 62871-62565 (GenBank accession No. AP008982.1).
The dsDNA construct (pWMaadA16GFP. 100 μl of the stock solution, 5 μg) is combined with mTP1 (SEQ ID NO: 1) or mTP4 (SEQ ID NO: 4) (100 μl of the unlabelled stock, 500 μg) and incubated for 15 minutes at 37° C. An 800 μl aliquot of DMEM is added to the mixture and 100 μl of this mixture is then added to each cell monolayer (prepared as described in Example 2) that has 500 μl complete media. The cells are incubated at 37° C. in a humidified atmosphere containing 5% CO2 for 24 h to 72 hr. The uptake and expression of the GFP reporter is measured at 40 h using a photometric detector/cell-imaging system (PTI) as described in Example 2. The cells are also imaged using confocal microscopy as described in Example 2 using MitoTracker® Orange staining to visualize mitochondria.

| Sequence | Transfection of mitochondria (GFP fluorescence) [1] | Fluorescence observed in cells upon transfection (MG cells) | Expression of GFP in mitochondria (MG cells) | gfp expression, Photometric Cell Imaging (average counts/sec) MG (MG cells) [counts/sec] |
| --- | --- | --- | --- | --- |
| MAAWMRSLFSPLKKLWIRMH (Zea mays) [mTP2] | can mediate the transfection of mitochondria | – | – | – |
| MWWRRSRTNSLRYT (listed as Arabidopsis thaliana) [mTP4] | can mediate the transfection of mitochondria | no fluorescence was observed | detected | 650000 |
| MFSYLPRYPLRAASARALVRATRPSYRSALLRYQ (listed as Triticum aestivum) [mTP1] | – | fluorescence was observed in all cells | detected | 1900000 |
